The text below walks through data of patent US8481540B2, “Inhibitors of bruton's tyrosine kinase” (Hoffmann-La Roche Inc., priority 2010, dated 2013).

Structures are written as SMILES. Where a name gives a salt, the structure may show the parent alone. Read-outs that look alike come from different tables or passages of the source.

Usually melting point stands for the temperature, or range, at which the solid turns liquid.

Series [1] has as its system B cells in human blood. Kind of series: Inhibition of B cell activation in whole blood measured by CD69 expression. It is filed as cell-based. The settings on record: read-out: Human Whole Blood. In short, it runs like this: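 Heparinised human whole blood was preincubated with compound (nine-point, three-fold dilutions) for 30 min at 37 °C. It was then stimulated with 50 μg/ml goat F(ab′)2 anti-human IgM for 20 hours. CD20/CD69 staining, red-cell lysis and flow cytometry gave percent CD69-positive cells, from which IC50 values were calculated.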

Setting [2] is: CD69-positive, CD20-positive cells after anti-IgM stimulation, human whole blood, 20 hours.

`Cn1nc(-c2cccc(-n3ncc4cc(C(C)(C)C)cc(F)c4c3=O)c2CO)cc(Nc2ccc(S(C)(=O)=O)cn2)c1=O` [I-3, 6-tert-Butyl-8-fluoro-2-[2-hydroxymethyl-3-[5-(5-methanesulfonyl-pyridin-2-ylamino)-1-methyl-6-oxo-1,6-dihydro-pyridazin-3-yl]-phenyl}-2H-phthalazin-1-one]: the melting point was 225 to 230 °C. In series [1] (Homo sapiens, 20 h), the IC50 was 45 nM.

As for `CN(C)CC(C)(C)Oc1cnc(Nc2cc(-c3cccc(-n4ncc5cc(C(C)(C)C)cc(F)c5c4=O)c3CO)nn(C)c2=O)cn1` [I-38, 6-tert-Butyl-2-(3-{5-[5-(2-dimethylamino-1,1-dimethyl-ethoxy)-pyrazin-2-ylamino]-1-methyl-6-oxo-1,6-dihydro-pyridazin-3-yl}-2-hydroxymethyl-phenyl)-8-fluoro-2H-phthalazin-1-one], the melting point lay in the range of 235 to 240 °C. For the same compound, the IC50 in series [1] (setting [2]) amounted to 12 nM.

Compound `Cn1nc(Nc2cc(-c3cccc(-n4ncc5cc(C(C)(C)C)cc(F)c5c4=O)c3CO)nn(C)c2=O)cc1CN1CCC1` [I-58] gave a melting point of 214 to 217 °C. The IC50 in series [1] (setting [2]) was found to be 2 nM.

Compound `CN(C)Cc1ccc(Nc2cc(-c3cccc(-n4ncc5cc(C(C)(C)C)cc(F)c5c4=O)c3CO)nn(C)c2=O)nc1` [I-8, 6-tert-Butyl-2-{3-[5-(5-dimethylaminomethyl-pyridin-2-ylamino)-1-methyl-6-oxo-1,6-dihydro-pyridazin-3-yl]-2-hydroxymethyl-phenyl}-8-fluoro-2H-phthalazin-1-one] yielded a melting point of 170 to 174 °C. Further, in series [1] (setting [2]), the IC50 was determined as 20 nM.

As for `CCN1CCN(c2ccc(Nc3cc(-c4cccc(-n5ncc6cc(C(C)(C)C)cc(F)c6c5=O)c4CO)nn(C)c3=O)nc2)CC1` [I-69, 6-tert-Butyl-2-(3-{5-[5-(4-ethyl-piperazin-1-yl)-pyridin-2-ylamino]-1-methyl-6-oxo-1,6-dihydro-pyridazin-3-yl}-2-hydroxymethyl-phenyl)-8-fluoro-2H-phthalazin-1-one], the melting point is 245 to 247 °C. Further, the IC50 in series [1] (setting [2]) was found to be 18 nM.

On to `CN(C)CCOc1cnc(Nc2cc(-c3cccc(-n4ncc5cc(C(C)(C)C)cc(F)c5c4=O)c3CO)nn(C)c2=O)cn1` [I-36, 6-tert-Butyl-2-(3-{5-[5-(2-dimethylamino-ethoxy)-pyrazin-2-ylamino]-1-methyl-6-oxo-1,6-dihydro-pyridazin-3-yl}-2-hydroxymethyl-phenyl)-8-fluoro-2H-phthalazin-1-one], for which the melting point fell in the range of 185 to 190 °C.

Consider `Cn1nc(-c2cccc(-n3ncc4cc(C(C)(C)C)cc(F)c4c3=O)c2CO)cc(Nc2cnc(C(F)(F)F)cn2)c1=O` [I-11, 6-tert-butyl-8-fluoro-2-{2-hydroxymethyl-3-[1-methyl-6-oxo-5-(5-trifluoromethyl-pyrazin-2-ylamino)-1,6-dihydro-pyridazin-3-yl]-phenyl}-2H-phthalazin-1-one], for which the melting point was in the range of 250 to 254 °C.

As to `Cn1nc(-c2cccc(-n3ncc4cc(C(C)(C)C)cc(F)c4c3=O)c2CO)cc(Nc2cnc([C@H](O)CO)cn2)c1=O` [I-57, 6-tert-Butyl-2-(3-{5-[5-((S)-1,2-dihydroxy-ethyl)-pyrazin-2-ylamino]-1-methyl-6-oxo-1,6-dihydro-pyridazin-3-yl}-2-hydroxymethyl-phenyl)-8-fluoro-2H-phthalazin-1-one], the melting point lay within 218 to 224 °C.

With `Cn1nc(-c2cccc(-n3ncc4cc(C(C)(C)C)cc(F)c4c3=O)c2CO)cc(Nc2ccc(C3CCN(S(C)(=O)=O)CC3)cn2)c1=O` [I-62, 6-tert-butyl-8-fluoro-2-(2-(hydroxymethyl)-3-(1-methyl-5-(5-(1-(methylsulfonyl)-piperidin-4-yl)pyridin-2-ylamino)-6-oxo-1,6-dihydropyridazin-3-yl)phenyl)phthalazin-1(2H)-one], the IC50 in series [1] (setting [2]) turned out to be 144 nM.

In the case of `CN(CCO)C(=O)c1ccc(Nc2cc(-c3cccc(-n4ncc5cc(C(C)(C)C)cc(F)c5c4=O)c3CO)nn(C)c2=O)nc1` [I-52, 6-(6-(3-(6-tert-butyl-8-fluoro-1-oxophthalazin-2(1H)-yl)-2-(hydroxymethyl)phenyl)-2-methyl-3-oxo-2,3-dihydropyridazin-4-ylamino)-N-(2-hydroxyethyl)-N-methylnicotinamide], the IC50 in series [1] (setting [2]) is 27 nM.

As to `Cn1nc(-c2cccc(-n3ncc4cc(C(C)(C)C)cc(F)c4c3=O)c2CO)cc(Nc2ccc(C(=O)N3CC(C#N)C3)cn2)c1=O` [I-53, 1-(6-(6-(3-(6-tert-butyl-8-fluoro-1-oxophthalazin-2(1H)-yl)-2-(hydroxymethyl)phenyl)-2-methyl-3-oxo-2,3-dihydropyridazin-4-ylamino)nicotinoyl)azetidine-3-carbonitrile], the IC50 in series [1] (setting [2]) is 39 nM.

On to `CC(C)N1CCN(c2ccc(Nc3cc(-c4cccc(-n5ncc6cc(C(C)(C)C)cc(F)c6c5=O)c4CO)nn(C)c3=O)nc2)CC1` [I-27, 6-tert-Butyl-8-fluoro-2-(2-hydroxymethyl-3-{5-[5-(4-isopropyl-piperazin-1-yl)-pyridin-2-ylamino]-1-methyl-6-oxo-1,6-dihydro-pyridazin-3-yl}-phenyl)-2H-phthalazin-1-one HCl], for which the IC50 in series [1] (setting [2]) came to 89 nM.

Take `CN1CCn2nc(Nc3cc(-c4cccc(-n5ccc6cc(C(C)(C)C#N)cc(F)c6c5=O)c4CO)nn(C)c3=O)cc2C1` [I-74, 2-(8-Fluoro-2-{2-hydroxymethyl-3-[1-methyl-5-(5-methyl-4,5,6,7-tetrahydro-pyrazolo[1,5-a]pyrazin-2-ylamino)-6-oxo-1,6-dihydro-pyridazin-3-yl]-phenyl}-1-oxo-1,2-dihydro-isoquinolin-6-yl)-2-methyl-propionitrile]: in series [1] (setting [2]), the IC50 amounted to 34 nM.

Take `Cn1nc(-c2cccc(-n3ncc4cc(C(C)(C)C)cc(F)c4c3=O)c2CO)cc(Nc2ccc(OC(C)(C)CN3CCC3)cn2)c1=O` [I-13, 2-(3-{5-[5-(2-azetidin-1-yl-1,1-dimethyl-ethoxy)-pyridin-2-ylamino]-1-methyl-6-oxo-1,6-dihydro-pyridazin-3-yl}-2-hydroxymethyl-phenyl)-6-tert-butyl-8-fluoro-2H-phthalazin-1-one]: in series [1] (setting [2]), the IC50 was 9 nM.

`Cn1nc(-c2cccc(-n3ncc4cc(C(C)(C)C)cc(F)c4c3=O)c2CO)cc(Nc2ccc(C(=O)N3CCC(C)(O)CC3)cn2)c1=O` [I-21, 6-tert-butyl-8-fluoro-2-(2-hydroxymethyl-3-{5-[5-(4-hydroxy-4-methyl-piperidine-1-carbonyl)-pyridin-2-ylamino]-1-methyl-6-oxo-1,6-dihydro-pyridazin-3-yl}-phenyl)-2H-phthalazin-1-one]: in series [1] (setting [2]), the IC50 was 109 nM.

Consider `CN(C)C(=O)c1ccc(Nc2cc(-c3cccc(-n4ncc5cc(C(C)(C)C)cc(F)c5c4=O)c3CO)nn(C)c2=O)nc1` [I-20], for which the IC50 in series [1] (setting [2]) is 15 nM.

In the case of `CN1CCC(c2ccc(Nc3cc(-c4cccc(-n5ccc6cc(C(C)(C)C#N)cc(F)c6c5=O)c4CO)nn(C)c3=O)nc2)C1` (stereo in doubt) [I-89, 2-[8-Fluoro-2-(2-hydroxymethyl-3-{1-methyl-5-[5-((S)-1-methyl-pyrrolidin-3-yl)-pyridin-2-ylamino]-6-oxo-1,6-dihydro-pyridazin-3-yl}-phenyl)-1-oxo-1,2-dihydro-isoquinolin-6-yl]-2-methyl-propionitrile], the IC50 in series [1] (setting [2]) was found to be 485 nM.

Regarding `Cn1nc(-c2cccc(-n3ccc4cc(C(C)(C)C#N)cc(F)c4c3=O)c2CO)cc(Nc2ccc(OC(C)(C)CN3CCC3)cn2)c1=O` [I-73, 2-[2-(3-{5-[5-(2-Azetidin-1-yl-1,1-dimethyl-ethoxy)-pyridin-2-ylamino]-1-methyl-6-oxo-1,6-dihydro-pyridazin-3-yl}-2-hydroxymethyl-phenyl)-8-fluoro-1-oxo-1,2-dihydro-isoquinolin-6-yl]-2-methyl-propionitrile], the IC50 in series [1] (setting [2]) is 30 nM.

Take `Cn1nc(-c2cccc(-n3ncc4cc(C(C)(C)C)cc(F)c4c3=O)c2CO)cc(Nc2ccc(C3CCN(C4COC4)CC3)cn2)c1=O` [I-80, 6-tert-Butyl-8-fluoro-2-{2-hydroxymethyl-3-[1-methyl-5-(1′-oxetan-3-yl-1′,2′,3′,4′,5′,6′-hexahydro-[3,4]bipyridinyl-6-ylamino)-6-oxo-1,6-dihydro-pyridazin-3-yl]-phenyl}-2H-phthalazin-1-one]: the IC50 in series [1] (setting [2]) came to 41 nM.

For `CN1CCC[C@H]1c1ccc(Nc2cc(-c3cccc(-n4ccc5cc(C(C)(C)C#N)cc(F)c5c4=O)c3CO)nn(C)c2=O)nc1` [I-76, 2-[8-Fluoro-2-(2-hydroxymethyl-3-{1-methyl-5-[5-((S)-1-methyl-pyrrolidin-2-yl)-pyridin-2-ylamino]-6-oxo-1,6-dihydro-pyridazin-3-yl}-phenyl)-1-oxo-1,2-dihydro-isoquinolin-6-yl]-2-methyl-propionitrile], in series [1] (setting [2]), the IC50 amounted to 51 nM.

Take `CCN1CCn2nc(Nc3cc(-c4cccc(-n5ncc6cc(C(C)(C)C)cc(F)c6c5=O)c4CO)nn(C)c3=O)cc2C1` [I-82, 6-tert-Butyl-2-{3-[5-(5-ethyl-4,5,6,7-tetrahydro-pyrazolo[1,5-a]pyrazin-2-ylamino)-1-methyl-6-oxo-1,6-dihydro-pyridazin-3-yl]-2-hydroxymethyl-phenyl}-8-fluoro-2H-phthalazin-1-one]: the IC50 in series [1] (setting [2]) was determined as 17 nM.

For `CN1CCC(c2ccc(Nc3cc(-c4cccc(-n5ncc6cc(C(C)(C)C)cc(F)c6c5=O)c4CO)nn(C)c3=O)nc2)CC1` [I-67, 6-tert-Butyl-8-fluoro-2-{2-hydroxymethyl-3-[1-methyl-5-(1′-methyl-1′,2′,3′,4′,5′,6′-hexahydro-[3,4]bipyridinyl-6-ylamino)-6-oxo-1,6-dihydro-pyridazin-3-yl]-phenyl}-2H-phthalazin-1-one], the IC50 in series [1] (Homo sapiens, 20 h) was 4 nM.

Consider `Cn1nc(-c2cccc(-n3ncc4cc(C(C)(C)C)cc(F)c4c3=O)c2CO)cc(Nc2ccc(S(=O)(=O)CCO)cn2)c1=O` [I-26, 6-tert-Butyl-8-fluoro-2-(3-{5-[5-(2-hydroxyethanesulfonyl)-pyridin-2-ylamino]-1-methyl-6-oxo-1,6-dihydro-pyridazin-3-yl}-2-hydroxymethyl-phenyl)-2H-phthalazin-1-one], for which the IC50 in series [1] (setting [2]) is 152 nM.
